The test system of data set [1] is Rabbit platelet aggregation induced by arachidonic acid. The experiment in a line: Effects on rabbit platelet aggregation in vitro (PRP), arachidonic acid-induced. Type of data set: cell-based. To be noted: Oryctolagus cuniculus, 0.05 h, arachidonic acid 10^-4 M, 3 min. preincubation, read-out: IC100 (concentration which gave maximum (100%) inhibition against platelet aggregation). Here is the method:
(§1) The antiaggregant activity in vitro of the present compounds was studied in platelet rich plasma from rabbit and man.
(§2) Blood was taken from the femoral artery of rabbit with a syringe containing sodium citrate (3.8%, 1 vol. in 9 vol. of blood). The citrated blood was centrifuged at 800 rpm. The supernatants were stored at 10° C. until use as platelet rich plasma (PRP) in the subsequent experiment. Platelet aggregation was determined with aggregometer (D-P 247 E, SIENCO Ltd.). Stock solution of test compounds was made by suspending at a concentration of 10 mg/ml in 1% gum arabic solution. Further, dilution was made with 0.9% saline. PRP was preincubated for 3 min. with the test compounds, and then arachidonic acid as aggregant was added at final concentration of 10^-4 M.
(§3) IC100 -values are the concentrations which gave maximum (100%) inhibition against platelet aggregation caused by arachidonic acid.

Data set [2] has as its system human platelet aggregation, collagen-induced. Nature of the data set: Effects on human platelet aggregation in vitro (PRP), collagen-induced. Type of data set: cell-based. Particulars: 0.05 h, collagen 6-8 μg/ml, read-out: concentration that completely inhibited platelet aggregation. How it is done: as §1, §2, §3
(§4) Blood samples were taken from median cubital vein of 5 healthy volunteers (male, 30 to 42 age) with plastic syringe. The citrated blood (sodium citrate 1 vol. in 9 vol. of blood) was centrifuged at 1000 rpm. The supernatant (PRP) was stored at 10° C. and used within 5 hours. Arachidonic acid (4-8×10^-4 M) and collagen (6-8 μg/ml, SIGMA, Type III) were used as aggregants. Other procedures were the same as in Experiment 1.

A short description of data set [3]: Gastro-intestinal lesions in rats (ulcerogenic activity). Details: species or system Male Wistar rats. To be noted: rat, in vivo, po. Here is the method: Male Wistar rats weighing 250 to 300 g were used in this experiment. Ulcer formation under the satiety condition was studied as follows: Rats not fasted prior to experiment were administered orally with test compounds. The animals were allowed free access to diet and water for 24 hours after the drug administration until sacrificed by exsanguination. The stomach and the intestine were removed and examined for lesions.
In the other study, rats had been deprived of food and water for 24 hours before drug administration. The animals were administered orally with the compound of Example 2 and aspirin and then they had free access to water but not to diet. Twenty-four hours later, the animals were killed by the exsanguination. The stomach and the intestine were removed and observed carefully to know whether or not lesions were present.
Units for the UD50values: mg/kg, p.o. UD50 means the dose that
cause the lesions in 50% of animals.

The subject of data set [4] is human platelet aggregation, arachidonic acid-induced. Nature of the data set: Effects on human platelet aggregation in vitro (PRP), arachidonic acid-induced. It counts as cell-based. Here is the method: as §1, §2, §3, §4
Data set [5] has as its system arachidonic acid-induced aggregation of platelets from rabbit. Nature of the data set: Ex vivo studies on platelet aggregation (PRP from rabbit administered orally), arachidonic acid-induced. Particulars: oral, blood taken one hour after administration, FIG. 1. It counts as in vivo. Here is the method:
To know the absorbability and potency of the compound of this invention, another platelet aggregation tests were done using the PRP from rabbit which had been administered orally with the drugs.
Rabbits were administered orally with the compound of Example 2 or aspirin. One hour after the drug administration, blood was taken from the femoral artery. The methods for preparing PRP and determining platelet aggregation were the same as Experiment 1.

Data set [6] in a line: Effect on blood viscosity (whole blood and plasma viscosities, hematocrit). To be noted: rat, 10 mg/kg p.o. twice a day for 2 days. Type of data set: in vivo, Male Wistar rats. Here is the method: Male Wistar rats weighing 300-380 g were used in this experiment. Rats were administered orally 10 mg/kg twice a day of the compound of Example 2 for 2 days. One hour after the last treatment, rats were anaesthetized with pentobarbital 35 mg/kg ip, and then blood was taken from vena cava caudalis. EDTA was added at a final concentration of 2 mM.
Whole blood and plasma viscosities were measured with rotational viscometer (Contraves LS-30, shear rate 0-128.5 sec.^-1, 37° C.) and hematocrit was determined by microhematocrit centrifugation (13,000 g for 5 min.).

Data set [7] can be described thus: Acute Toxicity (LD50), mice. To be noted: mouse, in vivo.
Data set [8] in a line: Acute Toxicity (LD50), rats. Particulars: rat, in vivo.
Setting [9] is: iv, read-out: Acute Toxicity LD50, I.V.
Setting [10] is: po, read-out: Acute Toxicity LD50, P.O.

Read-outs that look alike come from different tables or passages of the source.

By LD50 is commonly meant the dose at which mortality reaches 50%.

`CC(=O)Oc1ccccc1C(=O)O` [Aspirin, reference compound]: the IC100 in data set [1] was determined as 4 µg/mL; in data set [2] it was 100 µg/mL. The TD50 at 24 h in data set [3] (deprived of food and water for 24 hours before, examined 24 hours after, read-out: UD50 (dose that cause the lesions in 50% of animals), Fasting) was 25 to 50 mg/kg; in data set [3] (not fasted, 24 hours, read-out: UD50 (dose that cause the lesions in 50% of animals), Satiety) it was 230 mg/kg.

Take `Cc1nn2ccccc2c1C(=O)c1cccnc1` [Example 1, 2-methyl-3-nicotinoylpyrazolo[1,5-a]pyridine]: the IC100 in data set [1] amounted to 6 µg/mL.

Turning to `Cc1nn2ccccc2c1C(=O)C1=CNCCC1` [Example 2, 2-methyl-3-(1,4,5,6-tetrahydronicotinoyl)pyrazolo[1,5-a]pyridine], the IC100 in data set [1] came out at 0.03 µg/mL. The “difference in the IC100-values between individuals” value in data set [4] (arachidonic acid and collagen, considered to be due to individual difference) is “About 300 folds”. Further, the “inhibitory activity against both arachidonic acid- and collagen-induced platelet aggregation” value in data set [4] (comparison of the two aggregants) was “almost the same inhibitory activity”. Besides, in data set [5], the “inhibitory activity on arachidonic acid-induced platelet aggregation relative to aspirin” value was “several times as high as aspirin”. For the same molecule, in data set [6], the effect on hematocrit entry is listed as “no effects”; the “effect on plasma viscosity” value is listed as “no effects”; the “reduction of whole blood viscosity, shear rate 0.1285 sec.^-1” value is recorded as 50.1%; the “reduction of whole blood viscosity, shear rate 0.514 sec.^-1” value turned out to be 36.1%. For the same molecule, in data set [6], the “reduction of whole blood viscosity, shear rate 6.425 sec.^-1” value is on record as 23.5%; the “reduction of whole blood viscosity, shear rate 25.7 sec.^-1” value is given as 19.2%; the “reduction of whole blood viscosity, shear rate 128.5 sec.^-1” value was found to be 12.0%. Also, in data set [6] (37° C.), the “Plasma Viscosity” value was determined as 1.14 ± 0.01 mPS. Further, in data set [6] (37° C., * p < 0.05 vs vehicle), the “Whole Blood Viscosity, shear rate 0.1285 sec.^-1” value turned out to be 24.8 ± 2.71 mPS; the “Whole Blood Viscosity, shear rate 0.514 sec.^-1” value was found to be 17.2 ± 1.31 mPS; the “Whole Blood Viscosity, shear rate 6.425 sec.^-1” value was 7.31 ± 0.36 mPS; the “Whole Blood Viscosity, shear rate 25.7 sec.^-1” value is reported as 5.18 ± 0.12 mPS. Further, the “Whole Blood Viscosity, shear rate 128.5 sec.^-1” value in data set [6] (37° C., * p < 0.05 vs vehicle) amounted to 3.68 ± 0.08 mPS. The same molecule returned a Hematocrit in data set [6] (microhematocrit centrifugation) of 46.0 ± 0.71%. In data set [3] (UD50 (dose that cause the lesions in 50% of animals), Fasting), the TD50 at 24 h was in the range of 300 to 500 mg/kg. The TD50 at 24 h in data set [3] (UD50 (dose that cause the lesions in 50% of animals), Satiety) is more than 1000 mg/kg. For the same molecule, the LD50 in data set [7] (setting [9]) is 125 to 150 mg/kg. Moreover, in data set [7] (setting [10]), the LD50 was more than 1000 mg/kg. Also, the LD50 in data set [8] (setting [9]) is more than 100 mg/kg. Further, in data set [8] (setting [10]), the LD50 was more than 1000 mg/kg.

For the molecule `Cc1nn2c(c1C(=O)C1=CNCCC1)CCCC2` [Example 3, 2-methyl-3-(1,4,5,6-tetrahydronicotinoyl)-4,5,6,7-tetrahydropyrazole[1,5-a]pyridine], the IC100 in data set [1] was 0.2 µg/mL.

In the case of `Cc1nn2ccccc2c1C(=O)C1=CN(C(=O)Nc2ccc(Cl)cc2)CCC1` [Example 4, 2-methyl-3-[1-(p-chlorophenylcarbamoyl)-1,4,5,6-tetrahydronicotinoyl]-pyrazolo[1,5-a]pyridine], the IC100 in data set [1] was 1 µg/mL.

Turning to `CCOC(=O)C(C)N1C=C(C(=O)c2c(C)nn3ccccc23)CCC1` (centres unmarked) [Example 10, 3-[1-(1-ethoxycarbonylethyl)-1,4,5,6-tetrahydronicotinoyl]-2-methylpyrazolo-[1,5-a]pyridine], the IC100 in data set [1] was determined as 0.3 µg/mL.
